A value given as a limit tells only on which side of the number the result lay.

One data set relates to NCI-H23. Briefly: NCI in vitro disease-oriented tumor cells screen. It counts as cell-based, human. Conditions: Non-Small Cell Lung Cancer NCI-H23, Table 2 (numbering of Examples 1-13), average of at least two testings; for GI50: Homo sapiens, read-out: Cytotoxicity log GI50 (converted).
Another data set has as its system NCI-H522. Kind of data set: NCI in vitro disease-oriented tumor cells screen. It counts as cell-based, human. Conditions: Non-Small Cell Lung Cancer NCI-H522, Table 2, average of at least two testings; for GI50: Homo sapiens, read-out: Cytotoxicity log GI50 (converted).
The test system of a further data set is UACC-62. Kind of data set: NCI in vitro disease-oriented tumor cells screen. Conditions: Melanoma UACC-62, Table 2, average of at least two testings; for GI50: Homo sapiens, read-out: Cytotoxicity log GI50 (converted). The data set is classed as cell-based, human.
The next data set deals with SK-MEL-28. Kind of data set: NCI in vitro disease-oriented tumor cells screen. Conditions: Melanoma SK-MEL-28, Table 2, average of at least two testings; for GI50: Homo sapiens, read-out: Cytotoxicity log GI50 (converted). The data set is classed as cell-based, human.
Another data set has as its system MDA-MB-435. Briefly: NCI in vitro disease-oriented tumor cells screen. The data set is classed as cell-based, human. Conditions: Breast Cancer MDA-MB-435, Table 2 (numbering of Examples 1-13), average of at least two testings; for GI50: Homo sapiens, read-out: Cytotoxicity log GI50 (converted).
The test system of another data set is HS 578T. Kind of data set: NCI in vitro disease-oriented tumor cells screen. It counts as cell-based, human. Conditions: Breast Cancer HS 578T, Table 2, average of at least two testings; for GI50: Homo sapiens, read-out: Cytotoxicity log GI50 (converted).
The test system of data set [1] is human tumor cell lines. Kind of data set: NCI in vitro screen, mean over all cell lines tested. Conditions: for Cytotoxicity log GI50, Mean Value: Mean value over all cell lines tested (58 human tumor cell lines), Table 2 (numbering of Examples 1-13); for GI50: Homo sapiens, read-out: Cytotoxicity log GI50, Mean Value (converted).
Text: (§1) (Activity is defined as log GI50<−4 where GI50 is the molar concentration causing 50% cell growth inhibition).
A further data set deals with HL-60(TB). Kind of data set: NCI in vitro disease-oriented tumor cells screen. Conditions: Leukemia HL-60(TB), Table 2, average of at least two testings. The data set is classed as cell-based, human.
The next data set relates to LOX IMVI. Kind of data set: NCI in vitro disease-oriented tumor cells screen. It counts as cell-based, human. Conditions: Melanoma LOX IMVI, Table 2 (numbering of Examples 1-13), average of at least two testings; for GI50: Homo sapiens, read-out: Cytotoxicity log GI50 (converted).
A further data set has as its system UACC-257. Kind of data set: NCI in vitro disease-oriented tumor cells screen. The data set is classed as cell-based, human. Conditions: Melanoma UACC-257, Table 2, average of at least two testings; for GI50: Homo sapiens, read-out: Cytotoxicity log GI50 (converted).
The subject of the next data set is MALME-3M. Kind of data set: NCI in vitro disease-oriented tumor cells screen. The data set is classed as cell-based, human. Conditions: Melanoma MALME-3M, Table 2, average of at least two testings; for GI50: Homo sapiens, read-out: Cytotoxicity log GI50 (converted).
Another data set has as its system OVCAR-3. Kind of data set: NCI in vitro disease-oriented tumor cells screen. It counts as cell-based, human. Conditions: Ovarian Cancer OVCAR-3, Table 2 (numbering of Examples 1-13), average of at least two testings; for GI50: Homo sapiens, read-out: Cytotoxicity log GI50 (converted).
A further data set has as its system M14. Kind of data set: NCI in vitro disease-oriented tumor cells screen. Conditions: Melanoma M14, Table 2, average of at least two testings; for GI50: Homo sapiens, read-out: Cytotoxicity log GI50 (converted). It counts as cell-based, human.
Another data set relates to BT-549. Kind of data set: NCI in vitro disease-oriented tumor cells screen. The data set is classed as cell-based, human. Conditions: Breast Cancer BT-549, Table 2, average of at least two testings; for GI50: Homo sapiens, read-out: Cytotoxicity log GI50 (converted).
A further data set concerns OVCAR-8. Kind of data set: NCI in vitro disease-oriented tumor cells screen. The data set is classed as cell-based, human. Conditions: Ovarian Cancer OVCAR-8, Table 2, average of at least two testings; for GI50: Homo sapiens, read-out: Cytotoxicity log GI50 (converted).
Another data set concerns MDA-N. Briefly: NCI in vitro disease-oriented tumor cells screen. The data set is classed as cell-based, human. Conditions: Breast Cancer MDA-N, Table 2 (numbering of Examples 1-13), average of at least two testings; for GI50: Homo sapiens, read-out: Cytotoxicity log GI50 (converted).
Another data set has as its system SK-MEL-5. Kind of data set: NCI in vitro disease-oriented tumor cells screen. It counts as cell-based, human. Conditions: Melanoma SK-MEL-5, Table 2 (numbering of Examples 1-13), average of at least two testings; for GI50: Homo sapiens, read-out: Cytotoxicity log GI50 (converted).
The subject of a further data set is SK-MEL-2. Briefly: NCI in vitro disease-oriented tumor cells screen. Conditions: Melanoma SK-MEL-2, Table 2, average of at least two testings; for GI50: Homo sapiens, read-out: Cytotoxicity log GI50 (converted). The data set is classed as cell-based, human.
Data set [2] deals with human tumor cell lines.
Text: as §1

Text for BT-549: as §1
Text for HL-60(TB): as §1
Text for HS 578T: as §1
Text for LOX IMVI: as §1
Text for M14: as §1
Text for MALME-3M: as §1
Text for MDA-MB-435: as §1
Text for MDA-N: as §1
Text for NCI-H23: as §1
Text for NCI-H522: as §1
Text for OVCAR-3: as §1
Text for OVCAR-8: as §1
Text for SK-MEL-28: as §1
Text for SK-MEL-5: as §1
Text for UACC-257: as §1
Text for UACC-62: as §1

Take `CC(O)c1cc2c(s1)C(=O)c1sc(C(C)O)cc1C2=O` (centres unmarked) [Compound 24]: the “Cytotoxicity log GI50” value is given as −6.72 M in the data set with NCI-H23; −6.40 M with NCI-H522; −6.61 M with UACC-62; −6.63 M in the data set on SK-MEL-28; −6.80 M with MDA-MB-435; −6.50 M in the data set on HS 578T. In addition, the “Cytotoxicity log GI50” value is −6.36 M in the data set on HL-60(TB); −6.92 M in the data set on LOX IMVI; −6.79 M with UACC-257; −6.82 M in the data set on MALME-3M; −6.44 M in the data set on OVCAR-3; −6.81 M in the data set on M14. Besides, the “Cytotoxicity log GI50” value with BT-549 is −6.71 M; with OVCAR-8, −6.58 M; with MDA-N, −6.83 M; in the data set on SK-MEL-5, −6.85 M; in the data set with SK-MEL-2 it was −6.69 M. Further, in the data set with human tumor cell lines [1], the “Cytotoxicity log GI50, Mean Value” is given as −6.32 M.

In general, GI50 refers to the concentration giving 50% growth inhibition. In the case of `CC(=O)c1cc2c(s1)C(=O)c1c(C(C)=O)csc1C2=O` [Compound 13, 2,7-Diacetyl-4,8-dihydrobenzo[1,2-b:4,5-b′]dithiophene-4,8-dione], the 50% growth inhibitory concentration (GI50) with NCI-H23 is 1320 nM; in the data set on NCI-H522, 525 nM; with UACC-62, 1950 nM; in the data set with SK-MEL-28, 1780 nM; with MDA-MB-435, 178 nM; in the data set with HS 578T it was 2400 nM. The GI50 in the data set with human tumor cell lines [1] was 1170 nM; in the data set on HL-60(TB) (Homo sapiens, read-out: Cytotoxicity log GI50 (converted)), 52.5 nM; in the data set with LOX IMVI it was 1050 nM; in the data set on UACC-257, 562 nM; in the data set on MALME-3M, 1320 nM; in the data set on OVCAR-3 it was 229 nM. Further, the GI50 in the data set with M14 is 1510 nM; in the data set on BT-549, 1740 nM; in the data set on OVCAR-8, 1450 nM; with MDA-N it was 174 nM; in the data set with SK-MEL-5 it was 1200 nM; in the data set with SK-MEL-2, 1740 nM. Besides, the “overall cytotoxicity / potency (in words)” value in the data set with human tumor cell lines [2] is reported as “less active in all cell lines”.

In the case of `CC(=O)c1cc2c(s1)C(=O)c1sc(C(C)=O)cc1C2=O` [Compound 23], the “Cytotoxicity log GI50” value in the data set on NCI-H23 is on record as −6.54 M; in the data set on NCI-H522, −6.42 M; in the data set with UACC-62, −6.63 M; in the data set on SK-MEL-28, −6.69 M; in the data set on MDA-MB-435, −6.64 M; in the data set on HS 578T it was −6.55 M. In addition, the “Cytotoxicity log GI50” value in the data set on LOX IMVI is −7.65 M; in the data set on UACC-257, −6.78 M; with MALME-3M it was −6.65 M; in the data set on OVCAR-3, −7.53 M; in the data set on M14, −6.36 M; in the data set with BT-549 it was −6.04 M. The “Cytotoxicity log GI50” value is listed as −6.64 M in the data set on OVCAR-8, −6.71 M with MDA-N, −6.50 M in the data set with SK-MEL-5 and −6.79 M in the data set with SK-MEL-2. In addition, in the data set on human tumor cell lines [1], the “Cytotoxicity log GI50, Mean Value” is −6.47 M.

Regarding `CC(=O)c1cc2c(s1)C(=O)c1sccc1C2=O` [Compound 19, 2-Acetyl-4,8-dihydrobenzo[1,2-b:5,4-b′]dithiophene-4,8-dione], the GI50 in the data set with NCI-H23 was 18.2 nM; with NCI-H522, 17.4 nM; in the data set on UACC-62, 17 nM; with SK-MEL-28, below 10 nM; in the data set with MDA-MB-435 it was below 10 nM; in the data set on HS 578T, 36.3 nM. The GI50 was 46.8 nM in the data set on human tumor cell lines [1]; below 10 nM in the data set on LOX IMVI; 13.8 nM in the data set with UACC-257; 16.2 nM in the data set with MALME-3M; below 10 nM in the data set with OVCAR-3; 17.4 nM with M14. In addition, the GI50 was 17.8 nM in the data set on BT-549; 30.9 nM in the data set on OVCAR-8; below 10 nM with MDA-N; below 10 nM with SK-MEL-5; 33.1 nM in the data set with SK-MEL-2.

The values are drawn from patent publication US6337346B1 (University of North Carolina at Chapel Hill, priority 1998, dated 2002).
